Assay results reported in the NIST ThermoML archive (doi:10.1021/je4000857).
Values joined by “and” are separate entries in the source; they are usually repeats but may differ in a detail not shown here. Equal entries are not always repeated. ± gives the expanded uncertainty stated by the source.

Conditions: Liquid

FC(F)(F)C(F)(F)C(F)(F)F [octafluoropropane]
vapor or sublimation pressure (253.3 K): 194 ± 3 kPa
vapor or sublimation pressure (258.11 K): 238 ± 3 kPa
vapor or sublimation pressure (263.23 K): 287 ± 3 kPa
vapor or sublimation pressure (264.05 K): 298 ± 4 kPa and 297 ± 4 kPa
vapor or sublimation pressure (268.17 K): 343 ± 4 kPa
vapor or sublimation pressure (271.05 K): 383 ± 4 kPa
vapor or sublimation pressure (278.05 K): 483 ± 5 kPa
vapor or sublimation pressure (282.74 K): 553 ± 6 kPa
vapor or sublimation pressure (292.81 K): 743 ± 7 kPa
vapor or sublimation pressure (303.04 K): 995 ± 10 kPa
vapor or sublimation pressure (308.04 K): 1124 ± 11 kPa
vapor or sublimation pressure (312.78 K): 1256 ± 12 kPa
vapor or sublimation pressure (322.96 K): 1604 ± 16 kPa

CC [ethane]
vapor or sublimation pressure (264.05 K): 1862 ± 36 kPa
vapor or sublimation pressure (271.05 K): 2275 ± 43 kPa
vapor or sublimation pressure (278.05 K): 2700 ± 51 kPa
vapor or sublimation pressure (303.04 K): 4600 ± 87 kPa
